Results reported in article PMC3826719, “Impact of Polymorphic Variants on the Molecular Pharmacology of the Two-Agonist Conformations of the Human β1-Adrenoceptor” (PLoS ONE, 2013).
Where two headings read alike, the source gives them in different places.

Assays:
[1] = target: T1, human β1-adrenoceptor polymorphic variant Ser49/Arg389 (Homo sapiens, UniProt P08588, G389R); assay: 3H-cAMP accumulation, Ser49/Arg389; format: cell-based; set-up: expressed in transfected cells; pcDNA3.1); conditions: for Emax: read-out: % isop (% isoprenaline maximal response); for Log EC50 Site 2 / EC50: biphasic cAMP response; for EC50: read-out: Log EC50 Site 1 (converted)
Description: (§1) Cells were grown to confluence in clear plastic tissue culture treated 24-well plates and ^3H-cAMP accumulation performed as previously described. Briefly, cells pre-labelled with ^3H-adenine by incubation for 2 hours with 2 µCi/ml ^3H-adenine in serum-free media (0.5 ml per well). The cells were washed, then 1 ml serum-free media containing 1 mM IBMX (3-isobutyl-1-methylxanthine) was added to each well and the cells incubated for 15 minutes. Agonists (in 10 µl serum-free media) were added to each well and the plates incubated for 5 hours in order to maximise the responses. The assay was terminated by adding 50 µl concentrated HCl per well, the plates frozen, thawed and ^3H-cAMP separated from other ^3H-nucleotides by sequential Dowex and alumina column chromatography. […] Where pertussis toxin (PTX) was used, cells were incubated in the 24 well plates with PTX at 100 ng/ml for 24 hours before experimentation.
(§2) The affinities of antagonists (KD values, Table 3) were calculated from the shift of the agonist concentration response curve in the presence of a fixed concentration of antagonist using equation 5: [drawing 5] (5) where DR (dose ratio) is the ratio of the agonist concentration required to stimulate an identical response in the presence and absence of a fixed concentration of antagonist [B].

[2] = target: T2, human wildtype β1-adrenoceptor (Ser49/Gly389) (Homo sapiens, UniProt P08588); assay: 3H-cAMP accumulation, wildtype; format: cell-based; set-up: expressed in transfected cells; conditions: for Emax: read-out: % isop (% isoprenaline maximal response); for Log EC50 Site 2 / EC50: biphasic cAMP response; for EC50: read-out: Log EC50 Site 1 (converted)
Description: as §1, §2

[3] = target: T3, human β1-adrenoceptor polymorphic variant Gly49/Gly389 (Homo sapiens, UniProt P08588, S49G); assay: 3H-cAMP accumulation, Gly49/Gly389; format: cell-based; set-up: expressed in transfected cells; pcDNA3.1); conditions: for Emax: read-out: % isop (% isoprenaline maximal response); for EC50 / Log EC50 Site 2: biphasic cAMP response; for EC50: read-out: Log EC50 Site 1 (converted)
Description: as §1, §2

[4] = test system: endogenous P2y2 receptors; assay: 3H-inositol phosphate accumulation, positive controls; format: cell-based, Chinese Hamster; conditions: 100 µM
Description: Cells were grown to confluence in clear plastic tissue culture treated 24-well plates containing ^3H-myo-inositol (4 µCi/ml). Cells were washed then incubated for 30 minutes in 1 ml of serum free media containing 20 mM LiCl (37°C, 5% CO2). Agonists (in 10 µl) were then added and the incubation continued for 1 hour. All reagents were then removed and 1 ml of cold (−20°C) methanol/0.12M HCl (1∶1, v/v) added to each well. […] Total ^3H-inositol phosphate levels were determined by liquid scintillation counting. 100 µM ATP and 100 µM UTP was used as positive controls.

[5] = test system: ERK1/2 MAPKinase activation; assay: Alphascreen Surefire MAPKinase (pERK1/2) assay, positive control; format: cell-based, Chinese Hamster; conditions: 1 µM, 30 minutes
Description: Extracellular-signal-regulated kinases ERK1/2 activation was measured using a Surefire Alphascreen pERK1/2 kit as per manufacturer's instructions. Briefly, cells were grown to confluence in clear plastic tissue culture treated 96-well plates then serum starved by incubation in serum-free media for 24 hours before experimentation. Agonist in 20 µl was added to the well (1∶5 dilution in wells) and incubated for 5–60 minutes (37°C, 5% CO2). Reagents were then removed and 20 µl lysis buffer added to each well. Plates were frozen at −20°C overnight, thawed, and the assay then conducted as per manufacturer's instructions. After 2 hours in the dark, the plates were read on an Envision plate reader using standard Alphascreen settings. 1 µM phorbol ester was used as the positive control.

[6] = target: T4, human adenosine A1 receptor (Homo sapiens, UniProt P30542); assay: 3H-cAMP accumulation in CHO-A1 cells, pertussis toxin control; format: cell-based; conditions: 100 ng/ml for 24 hours, CHO cells expressing the human adenosine A1 receptor
T4 construct: expressed in transfected cells
T4 sequence (P30542 1-326): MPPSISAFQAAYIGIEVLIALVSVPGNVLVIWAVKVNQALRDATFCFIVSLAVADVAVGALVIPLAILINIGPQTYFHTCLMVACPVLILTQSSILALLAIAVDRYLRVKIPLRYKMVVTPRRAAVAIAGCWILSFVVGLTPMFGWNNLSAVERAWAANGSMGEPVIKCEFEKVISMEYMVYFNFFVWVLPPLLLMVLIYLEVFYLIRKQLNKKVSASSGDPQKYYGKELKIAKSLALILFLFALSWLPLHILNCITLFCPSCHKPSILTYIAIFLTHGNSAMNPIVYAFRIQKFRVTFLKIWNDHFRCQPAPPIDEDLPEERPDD

[7] = target: T3, human β1-adrenoceptor polymorphic variant Gly49/Gly389; assay: cell-based; conditions: Log KD
Description: (§3) The cells were washed twice with 200 µl 4°C phosphate buffered saline, 100 µl Microscint 20 was added to each well, and the plates counted on a Topcount at 21°C for 2 minutes per well.
(§4) All data points were performed in triplicate and each 96-well plate also contained 6 determinations of total and non-specific binding.

[8] = target: T2, human wildtype β1-adrenoceptor (Ser49/Gly389); assay: cell-based; conditions: Log KD
Description: as §3, §4

[9] = target: T1, human β1-adrenoceptor polymorphic variant Ser49/Arg389; assay: cell-based; conditions: Log KD
Description: as §3, §4

[10] = 3H-cAMP accumulation, main stable WT Ser49/Gly389 cell line (WT original), maximum defined by 10 µM isoprenaline
[11] = cells expressing Gly49/Gly389 receptor
[12] = cells expressing Ser49/Arg389 β1-receptors
[13] = cells expressing wildtype Ser49/Gly389 receptor

T1 sequence (P08588 whole entry G389R): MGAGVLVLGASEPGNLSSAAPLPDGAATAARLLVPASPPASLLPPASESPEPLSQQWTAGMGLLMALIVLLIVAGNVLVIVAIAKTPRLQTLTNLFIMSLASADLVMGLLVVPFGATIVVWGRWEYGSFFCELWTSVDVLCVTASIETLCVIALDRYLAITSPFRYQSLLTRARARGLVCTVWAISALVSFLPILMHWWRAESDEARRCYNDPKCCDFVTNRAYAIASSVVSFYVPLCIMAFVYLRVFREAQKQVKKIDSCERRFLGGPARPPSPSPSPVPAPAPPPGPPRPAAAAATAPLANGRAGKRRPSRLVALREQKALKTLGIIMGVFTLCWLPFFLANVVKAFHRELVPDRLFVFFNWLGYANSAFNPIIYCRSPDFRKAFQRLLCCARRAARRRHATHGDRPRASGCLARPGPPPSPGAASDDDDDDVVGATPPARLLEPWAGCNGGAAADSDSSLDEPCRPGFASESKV
T2 sequence (P08588 whole entry): as the sequence (P08588 whole entry G389R) above, with R389G counted along it
T3 sequence (P08588 whole entry S49G): as the sequence (P08588 whole entry G389R) above, with S49G, R389G counted along it

NC[C@H](O)c1ccc(O)c(O)c1 [Noradrenaline]
Emax [1]: 96 ± 3% | % isop (% isoprenaline maximal response) [2, 10]: full agonists | Emax [2]: 95.5 ± 2% | Emax [3]: 99.1 ± 3.7%

CNC[C@H](O)c1ccc(O)c(O)c1 [Adrenaline]
Emax [1]: 91.6 ± 2.2% | % isop (% isoprenaline maximal response) [2, 10]: full agonists | Emax [2]: 96.4 ± 2.1% | Emax [3]: 95.9 ± 3.2%

Nc1ncnc2c1ncn2[C@@H]1O[C@H](COP(=O)(O)OP(=O)(O)OP(=O)(O)O)[C@@H](O)[C@H]1O [ATP]
3H-inositol phosphate accumulation response [4, 11]: 2.77±0.40 fold over basal | 3H-inositol phosphate accumulation response [4, 12]: 2.96±0.28 fold over basal | 3H-inositol phosphate accumulation response [4, 13]: 2.18±0.17 fold over basal

CCCCCCCCCCCCCC(=O)O[C@@H]1[C@@H](C)[C@@]2(O)[C@@H](C=C(CO)C[C@]3(O)C(=O)C(C)=C[C@@H]23)[C@@H]2C(C)(C)[C@]12OC(C)=O [phorbol ester]
MAPKinase maximum stimulation ([5]; Gly49/Gly389 receptor cells): 12.6±3.8 fold over basal | MAPKinase maximum stimulation ([5]; Ser49/Arg389 receptor cells): 7.4±1.4 fold over basal | MAPKinase maximum stimulation ([5]; wildtype receptor cells): 11.9±1.6 fold over basal

O=c1ccn([C@@H]2O[C@H](COP(=O)(O)OP(=O)(O)OP(=O)(O)O)[C@@H](O)[C@H]2O)c(=O)[nH]1 [UTP]
3H-inositol phosphate accumulation response [4, 11]: 2.32±0.29 fold over basal | 3H-inositol phosphate accumulation response [4, 12]: 2.63±0.40 fold over basal | 3H-inositol phosphate accumulation response [4, 13]: 1.87±0.11 fold over basal

pertussis toxin (PTX)
Effect of pre-incubation on the cimaterol or CGP 12177 3H-cAMP responses ([1]; 100 ng/ml for 24 hours, Ser49/Arg389 receptor): no effect | Effect of pre-incubation on the cimaterol or CGP 12177 3H-cAMP responses ([2]; 100 ng/ml for 24 hours, WT receptor): no effect | Effect of pre-incubation on the cimaterol or CGP 12177 3H-cAMP responses ([3]; 100 ng/ml for 24 hours, Gly49/Gly389 receptor): no effect | Effect of pre-incubation on Gi-coupled inhibition of 3H-cAMP accumulation in response to cyclopentyladenosine (CPA) [6]: completely inhibited

CC(C)(Cc1c[nH]c2ccccc12)NCC(O)COc1ccccc1C#N (stereo not shown) [Bucindolol]
% isoprenaline ([1]; % maximum isoprenaline response for the overall biphasic response, main Ser49/Arg389 cell line): 53.6±1.2% | % Site 1 ([1]; % of the response occurring at site 1, main Ser49/Arg389 cell line): 80.4±2.6% | % Site 1 ([1]; Ser49/Arg389 Cell line W81): 47.6 ± 3.3% | % Site 1 ([1]; Ser49/Arg389 Cell line W93): 51.5 ± 4.0% | Log EC50 Site 2 ([1]; Ser49/Arg389 Cell line W81): -6.22 ± 0.15 | EC50 ([1]; Ser49/Arg389 Cell line W81): 0.724 nM | Log EC50 Site 2 ([1]; Ser49/Arg389 Cell line W93): -7.50 ± 0.07 | EC50 ([1]; Ser49/Arg389 Cell line W93): 0.589 nM | Log EC50 Site 2 ([1]; main Ser49/Arg389 cell line): −6.98±0.19 | EC50 ([1]; main Ser49/Arg389 cell line): 0.447 nM | % isoprenaline ([1]; overall biphasic response, Ser49/Arg389 Cell line W81): 34.8 ± 2.0% | % isoprenaline ([1]; overall biphasic response, Ser49/Arg389 Cell line W93): 32.8 ± 1.1% | % isoprenaline ([2]; % maximum isoprenaline response for the overall biphasic response, main WT Ser49/Gly389 cell line): 24.6±4.1% | % Site 1 ([2]; % of the response occurring at site 1, main WT Ser49/Gly389 cell line): 59.8±2.8% | % Site 1 ([2]; WT cell line T3): 75.6 ± 4.5% | % Site 1 ([2]; WT cell line T88): 48.0 ± 4.2% | Log EC50 Site 2 ([2]; WT cell line T3): -7.09 ± 0.15 | EC50 ([2]; WT cell line T3): 0.708 nM | Log EC50 Site 2 ([2]; WT cell line T88): -7.46 ± 0.09 | EC50 ([2]; WT cell line T88): 0.234 nM | Log EC50 Site 2 ([2]; main WT Ser49/Gly389 cell line): −7.53±0.05 | EC50 ([2]; main WT Ser49/Gly389 cell line): 0.347 nM | % isoprenaline ([2]; overall biphasic response, WT cell line T3): 43.4 ± 2.0% | % isoprenaline ([2]; overall biphasic response, WT cell line T88): 23.6 ± 2.4% | Kd ([7]; competition with 3H-CGP 12177, Gly49/Gly389 transiently transfected populations): 1.58 nM | Kd ([7]; competition with 3H-CGP 12177, additional stable Gly49/Gly389 cell line V87): 0.427 nM | Kd ([7]; competition with 3H-CGP 12177, whole cells, main stable CHO cell line Gly49/Gly389): 0.339 nM | Kd ([8]; competition with 3H-CGP 12177, WT transiently transfected populations): 1.32 nM | Kd ([8]; competition with 3H-CGP 12177, additional stable WT cell line T3): 1.45 nM | Kd ([8]; competition with 3H-CGP 12177, additional stable WT cell line T88): 0.355 nM | Kd ([8]; competition with 3H-CGP 12177, whole cells, main stable CHO cell line WT (Ser49/Gly389)): 0.275 nM | Kd ([9]; competition with 3H-CGP 12177, Ser49/Arg389 transiently transfected populations): 1.82 nM | Kd ([9]; competition with 3H-CGP 12177, additional stable Ser49/Arg389 cell line W81): 0.275 nM | Kd ([9]; competition with 3H-CGP 12177, additional stable Ser49/Arg389 cell line W93): 0.646 nM | Kd ([9]; competition with 3H-CGP 12177, whole cells, main stable CHO cell line Ser49/Arg389): 0.347 nM | % isoprenaline ([3]; % maximum isoprenaline response for the overall biphasic response, main Gly49/Gly389 cell line): 25.7±0.8% | % Site 1 ([3]; % of the response occurring at site 1, main Gly49/Gly389 cell line): 51.5±2.4% | % Site 1 ([3]; Gly49/Gly389 Cell line V6): 54.0 ± 2.7% | % Site 1 ([3]; Gly49/Gly389 Cell line V87): 69.3 ± 7.5% | EC50 ([3]; Gly49/Gly389 Cell line V6): 0.282 nM | Log EC50 Site 2 ([3]; Gly49/Gly389 Cell line V87): -7.34 ± 0.23 | EC50 ([3]; Gly49/Gly389 Cell line V87): 0.309 nM | Log EC50 Site 2 ([3]; main Gly49/Gly389 cell line): −7.45±0.11 | EC50 ([3]; main Gly49/Gly389 cell line): 0.417 nM | % isoprenaline ([3]; overall biphasic response, Gly49/Gly389 Cell line V6): 27.5 ± 1.0% | % isoprenaline ([3]; overall biphasic response, Gly49/Gly389 Cell line V87): 22.8 ± 1.1%

CC(C)NCC(O)COc1ccc(CC(N)=O)cc1 (stereo not shown) [Atenolol]
Emax ([1]; 3H-cAMP accumulation, main stable Ser49/Arg389 cell line (original), maximum defined by 10 µM isoprenaline): 1.3 ± 0.2% | Emax [2, 10]: 0% | Emax ([3]; 3H-cAMP accumulation, main stable Gly49/Gly389 cell line (original), maximum defined by 10 µM isoprenaline): 0%
